In series [1] the test system is Trypanosoma brucei rhodesiense. Briefly: DNDI: Inhibition of Human African Trypanosomiasis (HAT), STIB 900, in vitro. In kind it is functional, organism-based.
Series [2] deals with Trypanosoma cruzi. The series can be described thus: DNDI: Inhibition of Chagas Disease parasite Trypanosoma cruzi (Tulahuen LacZ, Clone C4), in vitro. In kind it is functional, organism-based.
Series [3] in a line: DNDI: in vitro intrinsic clearance in mouse liver microsomes at a concentration of 10uM. Particulars: read-out: CLint in vitro. In kind it is ADME, Microsome.
Series [4] concerns Plasmodium falciparum. Briefly: DNDI: Inhibition of the malaria parasite Plasmodium falciparum, in vitro. In kind it is functional, organism-based. The following applies: K1.
Series [5] concerns Trypanosoma brucei. Briefly: DNDI: Inhibition of Human African Trypanosomiasis, SBRI 427, in vitro. In kind it is functional, organism-based.
A short description of series [6]: DNDI: Cytotoxicity against L929 mouse fibroblasts, CYTO-SP, 24 hour. Particulars: mouse, L929 mouse fibroblasts. In kind it is toxicity, cell-based.
Series [7] can be described thus: DNDI: in vitro intrinsic clearance in human liver microsomes at a concentration of 10uM. In kind it is ADME, Microsome.
Series [8] is described as follows: DNDI: half life in human liver microsomes at a concentration of 10uM. In kind it is ADME, Microsome.
Series [9] in a line: DNDI: Solubility in phosphate buffered saline at pH7.4 measured by optical density (turbidimetry) at room temperature (OD-RT). In kind it is physicochemical. Particulars: pH 7.4.
The nature of series [10]: DNDI: Cytotoxicity against L-6 rat myoblasts from skeletal muscle cells. The class given is toxicity, cell-based, L6. The following applies: L-6 rat skeletal muscle myoblasts.
The test system of series [11] is Leishmania donovani. The series can be described thus: DNDI: Inhibition of formation of Leishmania donovani (strain MHOM/ET/67/L82) axenic amastigotes, in vitro. The class given is functional, organism-based.
The nature of series [12]: DNDI: half life in mouse liver microsomes at a concentration of 10uM. The class given is ADME, Microsome.
Series [13] in a line: DNDI: Cytotoxicity against L929 mouse fibroblasts, 72 hour. The class given is toxicity, cell-based. The following applies: mouse, L929 mouse fibroblasts.
Series [14] is described as follows: DNDI: Lipophilicity measured in Chromatographic hydrophobicity index (CHI) assay, pH 7.4. In kind it is physicochemical. The following applies: buffer.
For series [15] the following is noted: mouse, microsomes, 1 µM.
Description: DNDI: in vitro intrinsic clearance in mouse liver microsomes at a concentration of 1uM
The nature of series [16]: in vitro. The following applies: mouse, t (1 / 2).
Description: DNDI: half life in mouse liver microsomes at a concentration of 1uM
The nature of series [17]: DNDI: Solubility in phosphate buffered saline at pH7.4 measured by nephelometry at room temperature (NEPH-RT). The class given is physicochemical. Particulars: pH 7.4.
The nature of series [18]: in vitro. Particulars: human, liver microsomes, t (1 / 2).
Description: DNDI: half life in human liver microsomes at a concentration of 1uM
Series [19] can be described thus: in vitro. Particulars: human, liver microsomes, CLint in vitro.
Description: DNDI: in vitro intrinsic clearance in human liver microsomes at a concentration of 1uM
Series [20] concerns Trypanosoma brucei. The series can be described thus: DNDI: Inhibition of Human African Trypanosomiasis, Cross 22, in vitro. In kind it is functional, organism-based.
The subject of series [21] is Trypanosoma brucei. The series can be described thus: DNDI: Mean survival time in days (MSD) of mice after intraperitoneal injection of Human African Trypanosomiasis (HAT), EATRO 110, in vivo at 20 mg/kg/day for 4 days. In kind it is functional, Mus musculus.
Setting [22] is: Trypanosoma brucei, SBRI 427, read-out: IC50.

Values after ≈ are worked out from the molar mass of the structure shown. Values joined by “and” are separate entries in the source; they are usually repeats but may differ in a detail not shown here. Identical values can stand only once.

`CCCCCC(C)NCc1coc(-c2ccc(OC)cc2)n1` (configuration not stated): the IC50 was determined as 1.06 µg/mL (≈ 3.51 µM) in series [1]; 2.9 µg/mL (≈ 9.59 µM) in series [2]; 1.77 µg/mL (≈ 5.85 µM) in series [4]; 2.13 µg/mL (≈ 7.04 µM) in series [5] (setting [22]); 16 µg/mL (≈ 53 µM) in [10]; 12.4 µg/mL (≈ 41.1 µM) in [11]. Also, in series [3], the microsomal CLint at 10 µM stood at 15 µL/min/mg. The molecule further registered an IC50 at 24 h in series [6] of 33 µg/mL (≈ 109 µM). Besides, in series [7], the CLint in vitro amounted to 44 µL/min/mg. The half-life at 10 µM in [8] was 1.1 h; in series [12], 3.17 h. In series [9], this molecule registered a kinetic solubility of 6.3 µM (≈ 1.91 µg/mL). In series [13], this molecule yielded an IC50 at 72 h greater than 10 µg/mL. This molecule gave a chromatographic logD in series [14] of 4.16.

The molecule `O/N=C(/NC1CCCCC1)c1cccc2ccccc12` registered a CLint in vitro in [15] of 168 µL/min/mg. Further, the half-life at 1 µM in series [16] (liver microsomes) is 5 min; in series [18], 1.15 h. In addition, the IC50 in series [5] (setting [22]) is 3.96 µg/mL (≈ 14.8 µM). The molecule also registered a solubility (kinetic) in series [17] of 50 µM (≈ 13.4 µg/mL). The IC50 at 24 h in series [6] was greater than 50 µg/mL. Also, the microsomal CLint at 1 µM in series [19] is 12 µL/min/mg. In addition, the chromatographic logD in [14] came out at 4.43.

With `O/N=C(\NC1CCCC1)c1ccccc1-c1ccccc1`, the IC50 in series [1] is 18.5 µg/mL (≈ 66 µM); in [2] it was 21.4 µg/mL (≈ 76.3 µM); in series [4], 2.57 µg/mL (≈ 9.17 µM); in series [5] (setting [22]), 1.17 µg/mL (≈ 4.17 µM); in series [10], greater than 90 µg/mL; in [11], 53.1 µg/mL (≈ 189 µM). Also, in series [3], the microsomal CLint at 10 µM came out at 243 µL/min/mg. In [6], this molecule came in with an IC50 at 24 h greater than 50 µg/mL. The molecule further had a CLint in vitro in series [7] of 11 µL/min/mg. Further, the half-life at 10 µM in series [8] was determined as 4.33 h; in series [12], 0.2 h. Further, the solubility (kinetic) in series [9] turned out to be 50 µM (≈ 14 µg/mL). Also, the IC50 at 72 h in [13] is greater than 10 µg/mL. Also, the chromatographic logD in series [14] is 4.3.

As for `CCCCCC(C)NCc1coc(-c2ccc(Cl)cc2)n1` (configuration not stated), the IC50 in series [1] was 0.478 µg/mL (≈ 1.56 µM); in series [2], 11.3 µg/mL (≈ 36.8 µM); in [20] it was 1.54 µg/mL (≈ 5.02 µM); in [4], 2.6 µg/mL (≈ 8.47 µM); in series [5], 0.95 µg/mL and 1.02 µg/mL; in series [5] (setting [22]), 1.7 µg/mL (≈ 5.54 µM). The IC50 in series [10] was determined as 10.9 µg/mL (≈ 35.4 µM); in [11], 18.7 µg/mL (≈ 60.8 µM). Also, in series [3], the microsomal CLint at 10 µM amounted to 17 µL/min/mg. In series [6], this molecule returned an IC50 at 24 h of 17 µg/mL (≈ 55.4 µM). In [9], this molecule came in with a kinetic solubility of 6.3 µM (≈ 1.93 µg/mL). In addition, in [12], the half-life at 10 µM was 2.88 h. In [13], this molecule showed an IC50 at 72 h of 4.88 µg/mL (≈ 15.9 µM). The same molecule showed a chromatographic logD in series [14] of 5.02.

With `CCCCCC(C)NCc1coc(-c2cccc(OCC)c2)n1` (configuration not stated), the microsomal CLint at 10 µM in [3] came to 97 µL/min/mg. Also, the IC50 in [5] (setting [22]) was found to be 2.13 µg/mL (≈ 6.73 µM). For the same molecule, the IC50 at 24 h in [6] is 17 µg/mL (≈ 53.7 µM). For the same molecule, the solubility (kinetic) in series [9] was 6.3 µM (≈ 1.99 µg/mL). Besides, in series [12], the half-life at 10 µM came to 0.5 h. The molecule also showed an IC50 at 72 h in series [13] of 6.82 µg/mL (≈ 21.6 µM). Also, the chromatographic logD in series [14] was 4.83.

For `O/N=C(\NC1CCCCC1)c1ccccc1`, the IC50 was 13.6 µg/mL (≈ 62.3 µM) in [1]; greater than 30 µg/mL in [2]; greater than 5 µg/mL in series [4]; 0.92 µg/mL (≈ 4.21 µM) in series [5] (setting [22]); 49.7 µg/mL (≈ 227 µM) in [10]; 40.9 µg/mL (≈ 187 µM) in series [11]. For the same molecule, the CLint in vitro in [15] is 111 µL/min/mg; in series [7], 10 µL/min/mg. The molecule further yielded a half-life at 1 µM in [16] (microsomes) of 8 min. For the same molecule, the microsomal CLint at 10 µM in series [3] turned out to be 82 µL/min/mg. The molecule also yielded an IC50 at 24 h in series [6] of 50 µg/mL (≈ 229 µM). Besides, the values for the half-life at 10 µM in [8] and in series [12] were 4.82 h and 0.583 h, respectively. In addition, the solubility (kinetic) in series [9] is greater than 200 µM. For the same molecule, in series [13], the concentration for half-maximal inhibition (IC50) at 72 h is greater than 10 µg/mL. Also, the chromatographic logD in [14] came out at 3.9.

For the molecule `COc1cccc(/C(=N/O)NC2CCCCC2)c1`, the IC50 in series [1] is 14.4 µg/mL (≈ 58 µM); in [2], greater than 30 µg/mL; in series [4] it was 4.4 µg/mL (≈ 17.7 µM); in [5] (setting [22]), 0.57 µg/mL (≈ 2.3 µM); in series [10], 63.3 µg/mL (≈ 255 µM); in [11] it was 34 µg/mL (≈ 137 µM). Moreover, the MSD in [21] was 4 days. Also, in series [3], the microsomal CLint at 10 µM stood at 421 µL/min/mg. Moreover, the IC50 at 24 h in [6] was greater than 50 µg/mL. This molecule also yielded a CLint in vitro in series [7] of 13 µL/min/mg. For the same molecule, the half-life at 10 µM in series [8] came to 3.65 h; in series [12] it was 0.117 h. Moreover, in [9], the kinetic solubility amounted to 100 µM (≈ 24.8 µg/mL). For the same molecule, in series [13], the concentration for half-maximal inhibition (IC50) at 72 h was greater than 10 µg/mL. In series [14], this molecule had a chromatographic logD of 3.84.

On to `O/N=C(\NC1CCCCC1)c1ccccc1Oc1ccccc1`, for which the IC50 in series [1] is 62.6 µg/mL (≈ 202 µM); in series [2], greater than 30 µg/mL; in [4], 4.41 µg/mL (≈ 14.2 µM); in series [5] (setting [22]), 0.62 µg/mL (≈ 2 µM); in series [10], greater than 90 µg/mL; in series [11], 73.4 µg/mL (≈ 236 µM). The microsomal CLint at 10 µM in series [3] stood at 767 µL/min/mg. This molecule also had an IC50 at 24 h in series [6] greater than 50 µg/mL. Further, the CLint in vitro in series [7] is 45 µL/min/mg. For the same molecule, the half-life at 10 µM in series [8] was determined as 1.07 h; in [12], 0.0667 h. In [9], the solubility (kinetic) is 100 µM (≈ 31 µg/mL). For the same molecule, in series [13], the 50% inhibitory concentration (IC50) at 72 h is greater than 10 µg/mL. Further, the chromatographic logD in series [14] was 4.43.

Values taken from ChEMBL document CHEMBL1857833, “Screening and optimization of specific chemical series against human African Trypanosomiasis (HAT)”.
